In patent publication US4476120A, “Thiolic derivatives of erythromycin having therapeutic activity, and pharmaceutical compositions containing them” (Sigma Tau Indistrie Farmaceutiche Riunites, p.A, priority 1982, dated 1984):
Converted amounts (≈) assume the structure as drawn.

What was measured:
[1] = tested on: Staph. albus SS 03; assay type: cell-based; conditions: Brain Heart Infusion, estolate and RV11-RV15 previously hydrolized, unit assumed
[2] = tested on: Staph. albus SS 04; assay type: cell-based; conditions: Brain Heart Infusion, estolate and RV11-RV15 previously hydrolized, unit assumed
[3] = tested on: Staph. aureus SS 07; assay type: cell-based; conditions: Brain Heart Infusion, estolate and RV11-RV15 previously hydrolized, unit assumed
[4] = tested on: Staph. aureus SS 08; assay type: cell-based; conditions: Brain Heart Infusion, estolate and RV11-RV15 previously hydrolized, unit assumed
[5] = tested on: Staph. aureus SS 09; assay type: cell-based; conditions: Brain Heart Infusion, estolate and RV11-RV15 previously hydrolized, unit assumed
[6] = tested on: Staph. aureus SS 10; assay type: cell-based; conditions: Brain Heart Infusion, estolate and RV11-RV15 previously hydrolized, unit assumed
[7] = tested on: Strept. haemolyticus SS 17; assay type: cell-based; conditions: Brain Heart Infusion, estolate and RV11-RV15 previously hydrolized, unit assumed
[8] = tested on: Strept. haemolyticus SS 18; assay type: cell-based; conditions: Brain Heart Infusion, estolate and RV11-RV15 previously hydrolized, unit assumed
[9] = tested on: Strept. faecalis SS 19; assay type: cell-based; conditions: Brain Heart Infusion, estolate and RV11-RV15 previously hydrolized, unit assumed
[10] = tested on: B. subtilis ATCC 6633; assay type: cell-based; conditions: Brain Heart Infusion, estolate and RV11-RV15 previously hydrolized, unit assumed
[11] = tested on: B. subtilis SS 127; assay type: cell-based; conditions: Brain Heart Infusion, estolate and RV11-RV15 previously hydrolized, unit assumed
[12] = tested on: B. anthranis SS 08; assay type: cell-based; conditions: Brain Heart Infusion, estolate and RV11-RV15 previously hydrolized, unit assumed
[13] = tested on: Br. melitensis SS 19; assay type: cell-based; conditions: unit assumed
[14] = tested on: Br. abortus SS 7; assay type: cell-based; conditions: Brain Heart Infusion, estolate and RV11-RV15 previously hydrolized, unit assumed
[15] = tested on: Citrobacter SS 05; assay type: cell-based; conditions: Brain Heart Infusion, estolate and RV11-RV15 previously hydrolized, unit assumed
[16] = tested on: Citrobacter SS 09; assay type: cell-based; conditions: Brain Heart Infusion, estolate and RV11-RV15 previously hydrolized, unit assumed
[17] = tested on: S. infantis SS 08; assay type: cell-based; conditions: Brain Heart Infusion, estolate and RV11-RV15 previously hydrolized, unit assumed
[18] = tested on: S. heidelberg SS 18; assay type: cell-based; conditions: Brain Heart Infusion, estolate and RV11-RV15 previously hydrolized, unit assumed
[19] = tested on: E. aerogenes SS 011; assay type: cell-based; conditions: Brain Heart Infusion, estolate and RV11-RV15 previously hydrolized, unit assumed
[20] = tested on: Ps. aeruginosa SS 10; assay type: cell-based; conditions: Brain Heart Infusion, estolate and RV11-RV15 previously hydrolized, unit assumed
[21] = tested on: E. coli SS 04; assay type: cell-based; conditions: Brain Heart Infusion, estolate and RV11-RV15 previously hydrolized, unit assumed
[22] = tested on: E. coli SS 05; assay type: cell-based; conditions: Brain Heart Infusion, estolate and RV11-RV15 previously hydrolized, unit assumed
[23] = tested on: E. coli SS 06; assay type: cell-based; conditions: Brain Heart Infusion, estolate and RV11-RV15 previously hydrolized, unit assumed
[24] = tested on: E. coli SS 07; assay type: cell-based; conditions: Brain Heart Infusion, estolate and RV11-RV15 previously hydrolized, unit assumed
[25] = tested on: Pr. mirabilis SS 09; assay type: cell-based; conditions: Brain Heart Infusion, estolate and RV11-RV15 previously hydrolized, unit assumed
[26] = tested on: Pr. vulgaris SS 10; assay type: cell-based; conditions: Brain Heart Infusion, estolate and RV11-RV15 previously hydrolized, unit assumed
[27] = tested on: Kl. aerogenes SS 71; assay type: cell-based; conditions: Brain Heart Infusion, estolate and RV11-RV15 previously hydrolized, unit assumed
[28] = tested on: H. tubercolosis SS 03; assay type: cell-based; conditions: Brain Heart Infusion, estolate and RV11-RV15 previously hydrolized, unit assumed
Text: (§1) In the following table I the MIC/ml values are indicated corresponding to the lowest concentration capable of inducing a complete inhibition of the bacterial development.

[29] = tested on: Kl. pneumoniae SS 04; assay type: cell-based; conditions: Brain Heart Infusion, estolate and RV11-RV15 previously hydrolized, unit assumed
Text: as §1

[30] = tested on: Sr. marcescens SS 03; assay type: cell-based; conditions: Brain Heart Infusion, estolate and RV11-RV15 previously hydrolized, unit assumed
[31] = tested on: C. diphtheriae SS 19; assay type: cell-based; conditions: Brain Heart Infusion, estolate and RV11-RV15 previously hydrolized, unit assumed
[32] = tested on: D. pneumoniae SS 23; assay type: cell-based; conditions: Brain Heart Infusion, estolate and RV11-RV15 previously hydrolized, unit assumed
[33] = tested on: N. gonorreae SS 27; assay type: cell-based; conditions: Brain Heart Infusion, estolate and RV11-RV15 previously hydrolized, unit assumed
[34] = tested on: N. meningitidis SS 04; assay type: cell-based; conditions: Brain Heart Infusion, estolate and RV11-RV15 previously hydrolized, unit assumed
[35] = tested on: H. influentiae SS 02; assay type: cell-based; conditions: Brain Heart Infusion, estolate and RV11-RV15 previously hydrolized, unit assumed
[36] = tested on: H. pertussis SS 03; assay type: cell-based; conditions: Brain Heart Infusion, estolate and RV11-RV15 previously hydrolized, unit assumed
[37] = tested on: C. albicans SS 04; assay type: cell-based; conditions: Brain Heart Infusion, estolate and RV11-RV15 previously hydrolized, unit assumed
[38] = tested on: Cl. tetani SS 17; assay type: cell-based; conditions: Brain Heart Infusion, estolate and RV11-RV15 previously hydrolized, unit assumed
[39] = tested on: B. anthranis SS 09; assay type: cell-based; conditions: B. anthranis SS 09 (14 bis); Brain Heart Infusion; estolate and RV11-RV15 previously hydrolized; unit assumed
[40] = Acute toxicity; assay type: in vivo; conditions: mortality 10 days after treatment, mice
Protocol: The acute toxicity was assessed in Swiss white mice by oral and intravenous route. The LD50 values have been calculated by the methods of Probits, starting from the mortality recorded 10 days after the treatment.

[41] = tested on: Staph. aureus SS 07; assay: Experimental infection induced by Staph. aureus SS 07; assay type: in vivo, Swiss white mice; conditions: Staph. aureus SS 07, mg/kg of erythromycin, survival after 7 days
Method in brief: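 Swiss mice of 20 g infected parenterally with lethal amounts of Staph. aureus SS 07 or D. pneumoniae SS 23. Antibiotics were given at infection and again 6 and 24 h later. ED50 was derived from survival at 7 days.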

[42] = Mucolytic activity: obstruction of the bronchial tract after SO2 inhalation; assay type: in vivo, Sprague Dawley male rats; conditions: i.m., 250 mg/kg; SO2, 15 days
[43] = Histological examination of bronchi after SO2 inhalation; assay type: in vivo, Sprague Dawley male rats; conditions: i.m., 250 mg/kg

SMILES: CC[C@H]1OC(=O)[C@H](C)[C@@H](O[C@H]2C[C@@](C)(OC)[C@@H](O)[C@H](C)O2)[C@H](C)[C@@H](O[C@@H]2O[C@H](C)C[C@H](N(C)C)[C@H]2O)[C@](C)(O)C[C@@H](C)C(=O)[C@H](C)[C@@H](O)[C@]1(C)O [RV01, erythromycin alpha-mercaptosuccinate]
- MIC [1]: 0.1 µg/mL (≈ 0.136 µM)
- MIC [2]: 0.05 µg/mL (≈ 0.0681 µM)
- MIC [3]: 0.05 µg/mL (≈ 0.0681 µM)
- MIC [4]: 0.025 µg/mL (≈ 0.0341 µM)
- MIC [5]: 0.1 µg/mL (≈ 0.136 µM)
- MIC [6]: 0.05 µg/mL (≈ 0.0681 µM)
- MIC [7]: 3 µg/mL (≈ 4.09 µM)
- MIC [8]: 1.5 µg/mL (≈ 2.04 µM)
- MIC [9]: 0.1 µg/mL (≈ 0.136 µM)
- MIC [10]: 0.01 µg/mL (≈ 0.0136 µM)
- MIC [11]: 0.01 µg/mL (≈ 0.0136 µM)
- MIC [12]: 0.4 µg/mL (≈ 0.545 µM)
- MIC [13]: 3 µg/mL (≈ 4.09 µM)
- MIC [14]: 6 µg/mL (≈ 8.18 µM)
- MIC [15]: > 200 µg/mL
- MIC [16]: > 200 µg/mL
- MIC [17]: 100 µg/mL (≈ 136 µM)
- MIC [18]: 100 µg/mL (≈ 136 µM)
- MIC [19]: 50 µg/mL (≈ 68.1 µM)
- MIC [20]: 200 µg/mL (≈ 273 µM)
- MIC [21]: 50 µg/mL (≈ 68.1 µM)
- MIC [22]: 50 µg/mL (≈ 68.1 µM)
- MIC [23]: 100 µg/mL (≈ 136 µM)
- MIC [24]: 25 µg/mL (≈ 34.1 µM)
- MIC [25]: > 200 µg/mL
- MIC [26]: > 200 µg/mL
- MIC [27]: 100 µg/mL (≈ 136 µM)
- MIC [28]: 50 µg/mL (≈ 68.1 µM)
- MIC [29]: 100 µg/mL (≈ 136 µM)
- MIC [30]: 200 µg/mL (≈ 273 µM)
- MIC [31]: 0.025 µg/mL (≈ 0.0341 µM)
- MIC [32]: 0.05 µg/mL (≈ 0.0681 µM)
- MIC [33]: 0.8 µg/mL (≈ 1.09 µM)
- MIC [34]: 0.8 µg/mL (≈ 1.09 µM)
- MIC [35]: 1.5 µg/mL (≈ 2.04 µM)
- MIC [36]: 0.4 µg/mL (≈ 0.545 µM)
- MIC [37]: > 200 µg/mL
- MIC [38]: 0.2 µg/mL (≈ 0.273 µM)
- MIC [39]: 0.4 µg/mL (≈ 0.545 µM)
- LD50 (reliability limits) ([40]; i.v., 14400 min): 458.49 (518.06-405.77) mg.kg
- LD50 (reliability limits) ([40]; os): > 3000 mg·kg
- ED50 ([41]; Staphylococcus aureus, SS07, in Mus musculus, sc, 168 h, s.c., read-out: ED50 (reliability limits)): 0.95 mg/kg
- ED50 (reliability limits) ([41]; os, 10080 min): 2.36 (2.68-2.08) mg/kg
- Partial obstruction (% incidence) [42]: 13.33%
- Total obstruction, compact plug (% incidence) [42]: 26.66%
- Total obstruction, nodular mass (% incidence) [42]: 6.66%
- Total obstruction, pimply mass (% incidence) [42]: 13.33%
- histological appearance of non obstructed bronchi ([43]; free non obstructed): practically normal appearance
- histological appearance of obstructed bronchial tract ([43]; obstructed): an appearance like that of the control animals
